What was measured:
[1] = tested on: amyloidogenic light chains; conditions: cited from earlier work
[2] = tested on: TTR tetramers (WT or V122I); assay: WT and V122I TTR fibril formation inhibition assay (turbidity at 350 nm, acidic conditions, 72 h); assay type: biochemical; conditions: WT or V122I TTR 3.6 μM; compound 3.6 and 7.2 μM; pH 4.4 or 4.5; 72 h (values only in FIG. 1 and 2)
Description: Inhibition of WT and V122I TTR fibril formation under acidic conditions after 72 h-a sufficient period for aggregation to go to completion in the vehicle control (See Hurshman, A. R., White, J. T., Powers, E. T., Kelly, J. W.; Transthyretin aggregation under partially denaturing conditions is a downhill polymerization. Biochemistry 2004, 43, 7365-7381). Purified TTR tetramers (WT or V122I at 3.6 μM) were mixed with DMSO (vehicle control), Fx-1005 (positive control, See Razavi H, et al. Benzoxazoles as transthyretin amyloid fibril inhibitors: synthesis, evaluation, and mechanism of action. Angew Chem Int Ed Engl 2003, 42, 2758-2761), Fx-1003 (positive control) or PTC124 at final concentrations of 3.6 and 7.2 μM, and incubated for 30 minutes at 25° C. After adjusting the pH to 4.4 or 4.5, samples were incubated at 37° C. for 72 h. The turbidity was then measured at 350 nm using a UV-vis spectrometer. All endpoint amyloid fibril formation yields (which are slightly different for WT and V122I) were normalized for each allele to amyloidogenesis in the absence of stabilizer, assigned to be 100% fibril formation. Therefore, 5% fibril formation corresponds to a compound inhibiting 95% of TTR fibril formation after 72 h (See Miroy, G. J., et al. Inhibiting transthyretin amyloid fibril formation via protein stabilization. Proc Natl Acad Sci USA 1996, 93, 15051-15056). […]

Structure (SMILES)	prevention of fibril formation ([1]; amyloidogenic light chains)	binding to amyloidogenic light chains [1]	inhibition of TTR fibril formation [2]
O=C(O[C@@H]1Cc2c(O)cc(O)cc2O[C@@H]1c1cc(O)c(O)c(O)c1)c1cc(O)c(O)c(O)c1	prevent fibril formation	bind to amyloidogenic light chains	–
O=C(O)c1cccc(-c2noc(-c3ccccc3F)n2)c1 [Ataluren, 3-[5-(2-fluorophenyl)-1,2,4-oxadiazol-3-yl]benzoic acid]	–	–	inhibit TTR fibril formation
